The values below come from patent US20110300147A9, “Inhibiting tumor cell invasion, metastasis and angiogenesis” (The Scripps Research institute, priority 2005, published 2011).

SMILES strings stand for the structures.

In test [1] the test system is HUVEC. Nature of the test: endothelial cell invasion assay under hypoxia. The test is classed as cell-based, human. The conditions noted are these: hypoxic conditions. How it is done:
Cell invasion and mobility assays. Cell migration and invasion assays were performed as described with modifications (Albini et al., 1987). Stock solutions (15 mg/ml) of Matrigel basement membrane matrix (Becton Dickinson, Bedford, Mass.) were stored at −80° C. in 100 μl aliquots. After thawing on ice, the stock was diluted 1:50 with cold serum-free culture media and immediately applied to each membrane insert (8 μm pore) that formed the upper chambers of the multi-well invasion assay plate. The Matrigel was incubated overnight in a sterile laminar tissue culture hood. The membranes were hydrated for 2 hours with 250 μl of serum-free medium and excess medium was removed by aspiration. Medium containing 10% FBS was added to the bottom of each well. A suspension of 10^5 cells in 150 μl of serum-free medium was added to the upper chamber and incubated for 12 hours at 37° C., 5% CO2. At the indicated times, the membrane inserts were removed from the plate and the non-invading cells were removed from the upper surface. Membrane associated cells were stained with 0.09% crystal violet for 30 minutes and washed twice with PBS. The invading cells were counted microscopically. […]
The effect of AEPI-1 on endothelial cell function was assessed in vitro in a matrigel endothelial cell tube formation assay. […]

The test system of test [2] is 4T1 breast cells. Nature of the test: 4T1 experimental lung metastasis model. The conditions noted are these: AEPI-1 100 μg i.p. daily for two weeks. The test is classed as in vivo, BALB/c mice. How it is done:
A lung metastasis model was induced experimentally by injecting a cell suspension of 4T1 breast cells (1×10^5) suspended in 0.1 ml serum free medium into the tail vein of six-week-old female BALB/c mice. The mice were treated with 100-μl intraperitoneal injections of either PBS alone (control group) or LEG-3 (100 μg/100 μl) daily for two weeks.
4T1 Lung Experimental Metastasis was generated by suspending 4T1 cells (1×10^5) in 0.1 ml serum-free medium and injecting these cells into the tail vein of mice under the anesthesia. Treatment involved 100 μl intraperitoneal injection of either saline alone (control group) or AEPI-1 (treatment group). The AEPI-1 treatment group was given 100 μg AEPI-1 in saline (100 ul) by intraperitoneal injection daily for two weeks. All mice were euthanized by CO2 and lungs were removed, weighted and fixed in the Bouin's solution. Lung metastases were counted by anatomy microscope.

Test [3] relates to MDA-MB-231 cells. Nature of the test: MDA-MB-231 human mammary carcinoma model. The conditions noted are these: two weeks after tumor cell implantation. The test is classed as in vivo, Balb C nu/nu mice. As to the method:
The effect of AEPI-1 on tumor growth and invasion was then evaluated in a human mammary carcinoma model established in Balb C nu/nu mice. The MDA-MB-231 cells grew aggressively in vivo and formed a tumor that was similar to a human infiltrating ductal carcinoma with apparent glandular differentiation. The tumor locally invaded surrounding tissues and skeletal muscles.

Turning to `CCOC(=O)C1OC1C(=O)N(CC(N)=O)NC(=O)[C@H](C)NC(=O)[C@H](C)NC(=O)OCc1ccccc1` (stereo partly drawn) [AEPI-1, Cbz-Ala-Ala-AzaAsn-(S,S)-EPCOOEt], in test [1], the “hypoxia induced endothelial cell invasion” value was “inhibited”. Besides, in test [2], the experimental lung metastasis entry was “inhibited experimental lung metastasis”. Further, in test [3], the “tumor differentiation into a more invasive form” value is reported as “blocked” and the tumor growth entry is recorded as “completely suppressed tumor growth”.
